Test results reported in patent US12544375B2, “Small molecule therapeutic for parkinson's disease paired with a biomarker of therapeutic activity” (The Board of Trustees of the Leland Stanford Junior …, priority 2019, dated 2026).

What was measured:
[1] = test system: healthy-1 or PD-2 fibroblasts; assay: Peroxisome movement or distribution, EGFP-peroxisome live imaging; assay type: cell-based, human; settings: 10 μM for 30 hrs
Procedure: (§1) FIG. 8. Related to FIG. 2-4. Miro1 Reducer in Human Cell and Fly Models. (A) Fibroblasts from Healthy-1 and PD-2 were treated, lysed, and blotted as indicated. Band intensities are normalized to those of GAPDH from the same blots and compared to “Healthy-1, no treatment”. n=4 independent experiments. (B) Fibroblasts from PD-2 were treated and immunostained as indicated. The intensity was quantified for each cell across 264-320 cells from 3 independent experiments, compared to “no treatment”. (C) Fibroblasts were treated, immunoprecipitated (IPed) with anti-Miro1, and blotted as indicated. Similar results were observed twice. (D) Similar as in (C), fibroblasts were treated as indicated, and IPed with anti-Miro1. The GTPase activity of the IPed Miro1 protein was measured as described in Method. […] The MitoSox intensity was quantified for each cell across 106-161 cells from 3 coverslips. […] The TMRM intensity was measured for each cell across 48-60 cells from 3 independent experiments, and expressed as a fraction of the mean of “Healthy-1, no treatment”. […] The movement (the intensity of non-yellow) was quantified for each cell as described in (Tsai et al., 2014) across 22-31 cells from 3 transfections. […] (1) Left: The percentage of TH-positive iPSC-derived neurons out of total cells (Dapi-positive) is calculated after immunocytochemistry under 20× as described in FIG. 3. […]

Miro1 = biological target: T1, Miro1 (Homo sapiens, UniProt Q8IXI2); assay: Ubiquitination of immunoprecipitated Miro1 after CCCP 1 hr; assay type: cell-based; settings: PD-2 fibroblasts, with or without Miro1 Reducer
T1 construct: We applied compound 3 to fibroblasts from one sporadic PD patient (PD-2); endogenous in cells; host or cells: human skin fibroblasts (PD-2, Healthy-1 and further PD/control lines)
T1 sequence (Q8IXI2 whole entry): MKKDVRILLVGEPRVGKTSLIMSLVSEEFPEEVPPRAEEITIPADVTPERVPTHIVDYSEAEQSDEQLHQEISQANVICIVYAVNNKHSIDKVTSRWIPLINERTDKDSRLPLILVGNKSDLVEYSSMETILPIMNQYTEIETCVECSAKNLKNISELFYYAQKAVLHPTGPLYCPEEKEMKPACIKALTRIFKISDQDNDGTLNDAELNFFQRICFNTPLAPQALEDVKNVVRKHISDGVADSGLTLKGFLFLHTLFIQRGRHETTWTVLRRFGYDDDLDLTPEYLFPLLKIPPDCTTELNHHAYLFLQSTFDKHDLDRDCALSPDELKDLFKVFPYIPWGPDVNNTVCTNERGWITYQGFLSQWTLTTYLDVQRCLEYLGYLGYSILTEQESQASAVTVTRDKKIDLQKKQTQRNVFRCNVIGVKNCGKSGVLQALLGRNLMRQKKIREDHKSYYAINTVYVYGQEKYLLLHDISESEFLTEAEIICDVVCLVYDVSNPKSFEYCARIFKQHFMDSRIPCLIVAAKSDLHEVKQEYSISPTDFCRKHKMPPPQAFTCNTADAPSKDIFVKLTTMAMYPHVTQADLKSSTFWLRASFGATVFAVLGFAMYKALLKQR
Procedure: as §1

O=C(Nc1ccc(Nc2cc(-n3ccnc3)ncn2)cc1)Nc1cccc(F)c1 [Miro1 Reducer]
peroxisome movement or distribution [1]: did not affect | depolarization-elicited increase of ubiquitination of IPed Miro1 (Miro1): did not occur
